# Measurements published in US11771709B2, “ALK protein degradation agent and anti-tumor application thereof” (ShanghaiTech University, priority 2017, dated 2023).
# Read-outs that look alike come from different tables or passages of the source.
# How the values were obtained:
# [1] = system: NCI-H3122 (EML4-ALK, V1) cells; experiment: Growth inhibition IC50 in lung cancer H3122 cells (Cell Titer Blue / Cell Titer Glo)
# [2] = biological target: T1, ALK protein in H3122 cells (Homo sapiens, UniProt Q9UM73); experiment: ALK protein stability after stopping translation with cycloheximide in H3122 cells; format: cell-based; conditions: 0.5 uM compound, 1 ug/ml cycloheximide, 12 hours (Ceritinib), 7 hours (SIAIS074017)
# T1 construct: EML4 (Echinoderm microtubule-associated protein-like 4, Q9HC35) fusion partner, variant 1; host or cells: NCI-H3122 lung adenocarcinoma cells; the other entry of the earlier key: EML4 (Q9HC35, Echinoderm microtubule-associated protein-like 4)
# Procedure: The mechanism of PROTAD compound to degrade its target protein acts through recruiting E3 ubiquitining ligase to the proximity of its target protein, which leads to the target protein being highly ubiquitinzed and eventually being degraded. In order to see the mechanism of ALK PROTAD compounds we developed, we firstly examined the half-life of ALK protein. Because the total level of ALK protein was determined by both the translational activity and protein degradation, we used cyclohexmide to stop protein translation to examine the effect of ALK PROTAD compounds on ALK protein stabilities.
# We listed data for Ceritinib-based ALK PROTAD compounds here as an example, and data for other ALK PROTAD compounds were tested in the same way and similar results were found. […] The difference at the total ALK protein level will reflect the different influence of drugs on protein stability.
# [3] = system: SR (NPM-ALK) cells; experiment: Growth inhibition IC50 in ALCL SR cells (CCK8/WST, 72 hours); format: cell-based; conditions: SR cells, WST
# [4] = biological target: T2, ALK protein in H3122 (EML4-ALK) cells (Homo sapiens, UniProt Q9UM73); experiment: Western blot of ALK protein level (degradation, DC50), ALK phosphorylation and downstream signaling in H3122 cells; format: cell-based; conditions: for DC50: ALK protein degradation in H3122 cells; for ALK protein level / degradation: H3122 cells, western blot, up to 500 nM
# T2 construct: EML4 (Echinoderm microtubule-associated protein-like 4, Q9HC35) fusion partner, variant 1; host or cells: NCI-H3122 lung adenocarcinoma cells; the other entry of the earlier key: EML4 (Q9HC35, Echinoderm microtubule-associated protein-like 4)
# [5] = biological target: T3, Ba/F3 (EML4-ALK/L1196M) (Homo sapiens, UniProt Q9UM73, L1196M, cells depend on it); experiment: Growth inhibition IC50 in Ba/F3 cells expressing EML4-ALK L1196M; format: cell-based
# T3 construct: Q9HC35 (Echinoderm microtubule-associated protein-like 4)
# [6] = system: U118MG cells (FIG-ROS1 gene fusion); experiment: Growth inhibition IC50 in ROS1 mutant glioblastoma cell line U118MG (72 hours); format: cell-based; conditions: Homo sapiens, U-118-MG, U118MG cells, 72 hours
# [7] = system: H2228 cells (EML4-ALK); experiment: Colony formation assay in H2228 cells; format: cell-based; conditions: about 2 weeks
# Procedure: Cell were digested to become single cell suspension. Cells were seeded in the intensity of 250 cells/well in 12 well plate. Treated cells at the concentration of 100, 250, 500 nM. Fixed cells 2-3 weeks after and stained cells with crystyl violate.
# In order to see the effect of ALK PROTAD compounds on the colony formation ability of cancer cells, EML4-ALK mutant lung cancer cells H2228 were firstly seeded in 12 well plate at the density of 200 cells per well. Cells were treated with different ALK PROTAD compounds at different concentration for about 2 weeks.
# [8] = system: NCI-H2228 (EML4-ALK, V3) cells; experiment: Growth inhibition IC50 in lung adenocarcinoma H2228 cells (WST); format: cell-based; conditions: Homo sapiens, WST (Table 3)
# Excerpt: Experiments were repeated at least three times.
# Besides above, we also tested the dosage-dependent effects on the growth inhibition in H2228 cells. […] (Table 3).
# [9] = system: PC9 (EGFR, exon 19 del) cells; experiment: Growth inhibition IC50 in EGFR mutant lung adenocarcinoma PC9 cells; format: cell-based; conditions: Homo sapiens, PC-9; PC9 cells, CTB, n ≥ 3; read-out: Half Inhibitory Concentration (IC50) Mean
# [10] = system: SW48 cell line (EGFR G719S); experiment: Growth inhibition IC50 in EGFR G719S colorectal cancer cell line SW48; format: cell-based; conditions: Homo sapiens, CTG, n = 2, read-out: Half Inhibitory Concentration (IC50) Mean
# [11] = biological target: T4, ALK protein in SR (NPM-ALK) cells (Homo sapiens, UniProt Q9UM73); experiment: Western blot of ALK protein level (degradation, DC50), ALK phosphorylation and downstream signaling in SR cells; format: cell-based; conditions: for DC50: ALK protein degradation in SR cells; for ALK protein degradation: 16 hours, up to 500 nM
# T4 construct: NPM (nucleophosmin, NPM1, P06748) fusion partner; host or cells: SR (ALCL) cells; the other entry of the earlier key: NPM1 (P06748, Nucleophosmin)
# [12] = biological target: T5, Ba/F3 (EML4-ALK/C1156Y) (Homo sapiens, UniProt Q9UM73, C1156Y, cells depend on it); experiment: Growth inhibition IC50 in Ba/F3 cells expressing EML4-ALK C1156Y; format: cell-based
# T5 construct: Q9HC35 (Echinoderm microtubule-associated protein-like 4)
# [13] = system: ALK protein in H2228 (EML4-ALK) cells; experiment: Western blot of ALK protein level, ALK phosphorylation and downstream signaling in H2228 cells; format: cell-based
# Procedure: Cancer cells were seeded in 1 ml RPMI1640 medium in 24-well plate at the density of 3×10^5 or 1.5×10^5 cells/ml. The next day cells were treated with different concentration of drugs for 16 hours. Then cells were washed twice with PBS and lyzed in RIPA lysis buffer with Halt Proteinase and Phosphotase inhibitor. Equal amount of proteins were loaded to run SDS-PAGE gels after denature. The gels were blotted to PVDF membrane. After incubating with first and secondary antibodies, the images were developed using SuperSignal West Pico Chemiluminescent Substrate.
# The effect of Brigtinib based PROTAD molecules on the ALK protein total level were studied by western blot in ALCL SR (NPM-ALK) cell line and lung adenocarcinoma cell line H2228 and H3122 (EML4-ALK).
# The effects of compounds SIAIS164008 and SIAIS164018 of the present invention on the activation of ALK mediated signaling pathways were also studied in SR cells and H2228 cells. […] The overall effect of compound of SIAIS164018 was better than that of SIAIS164008.
# [14] = biological target: T6, ALK protein in SR cells (Homo sapiens, UniProt Q9UM73); experiment: Block of ALK degradation by proteosome inhibitors MG132 and MLN4924 in SR cells; format: cell-based
# T6 construct: NPM (nucleophosmin, NPM1, P06748) fusion partner; host or cells: SR (ALCL) cells; the other entry of the earlier key: NPM1 (P06748, Nucleophosmin)
# Excerpt: To further validate the degradation effect act through proteosome mediated pathway, we also treated cells with two different proteosome inhibitors MG132 and MLN4924 to block protein degradation (FIG. 16).
# [15] = biological target: T7, Ba/F3 (EML4-ALK/WT) (Homo sapiens, UniProt Q9UM73); experiment: Growth inhibition IC50 in Ba/F3 cells expressing EML4-ALK wild type; format: cell-based
# T7 construct: Q9HC35 (Echinoderm microtubule-associated protein-like 4)
# [16] = Pharmacokinetics (PK) study in SD rat (IV, IP, PO; LC-MS/MS); format: in vivo; conditions: Sprague-Dawley, serum; for clearance: read-out: clearance rate, mean value
# Procedure: SD rat were used to study the PK of ALK PROTAD compounds. ALK PROTAD compounds SIAIS164008, SIAIS164018, SIAIS164023 and SIAIS151118 were administrated into SD rat via three different routes: IV (Intravenous Injection), IP (Intraperitoneal Injection) and PO ([…]). Blood samples at different sampling time points up to 24 hours post dosing were collected from each animal and analyzed with LC-MS/MS to calculate the PK for each chemical.
# [17] = system: MOLM13 cells (FLT3-ITD); experiment: Growth inhibition IC50 in FLT3-ITD AML cell line MOLM13; format: cell-based; conditions: Homo sapiens, MOLM-13, MOLM13 cells
# [18] = system: PC9Brc1 (EGFR, exon 19 del+T790M) cells; experiment: Growth inhibition IC50 in EGFR mutant lung cancer PC9Brc1 cells; format: cell-based; conditions: CTB, n ≥ 3, read-out: Half Inhibitory Concentration (IC50) Mean
# [19] = system: ALK positive non-small cell lung cancer; conditions: second line treatment (Shaw et al., 2017); cited from earlier work
# [20] = Ceritinib based ALK PROTAD compounds (Table 5)
# [21] = n = 2, reagent CTG, read-out: Half Inhibitory Concentration (IC50) Mean
# [22] = 72 h, Brigatinib-based PROTAD molecules (Table 3)
# [23] = IP, 2 mg/kg, read-out: serum half-life (converted)
# [24] = IP, 2 mg/kg, read-out: time to maximal serum peak level (Tmax)
# [25] = IV, single dose 2 mg/kg, read-out: serum clearance half-life (converted)
# [26] = PO, 10 mg/kg, read-out: serum half-life (converted)
ALK protein level after stop of translation (protein stability) [2],DC50 [4] [nM],GI50 [5] [nM],"IC50 [6, 21] [nM]",IC50 [8] [nM],IC50 [9] [nM],IC50 [10] [nM],DC50 [11] [nM],"concentration inhibiting the phosphorylation of ALK proteins ([11]; SR cells, western blot) [nM]","downstream signaling pathway (PI3K/AKT, MEK/ERK and STAT3) ([11]; SR cells, western blot)",GI50 [12] [nM],GI50 [15] [nM],"bioavailability ([16]; IP, 2 mg/kg) [%]","half-life [16, 23] [h]","Tmax [16, 24] [h]","clearance ([16]; IV, single dose 2 mg/kg) [mL/min/kg]",SMILES,"IC50 [3, 20] [nM]","ALK protein degradation ([11]; SR cells, western blot)",phosphorylation of ALK protein and activation of PI3K/AKT pathway [13],"IC50 [3, 22] [nM]",other results
significantly reduced ALK protein level,100 to 500,,,,,,,,,,,,,,,"Cc1cc(Nc2ncc(Cl)c(Nc3ccccc3S(=O)(=O)C(C)C)n2)c(OC(C)C)cc1C1CCN(C(=O)CCC(=O)N[C@H](C(=O)N2C[C@H](O)C[C@H]2C(=O)NCc2ccc(-c3scnc3C)cc2)C(C)(C)C)CC1 [SIAIS074017, (2S,4R)-1-((S)-2-(4-(4-(4-((5-chloro-4-((2-(isopropylsulfonyl)phenyl)amino)pyrimidin-2-yl)amino)-5-isopropoxy-2-methylphenyl)piperidin-1-yl)-4-oxobutanamido)-3,3-dimethylbutanoyl)-4-hydroxy-N-(4-(4-methylthiazol-5-yl)benzyl)pyrrolidine-2-carboxamide]",116,,,,"IC50 ([1]; Homo sapiens, NCI-H3122, H3122 cells, CTB (Cell Titer Blue)): 45 nM; IC50 ([1]; Homo sapiens, NCI-H3122, H3122 cells, CTG (Cell Titer Glo)): 41 nM"
,1 to 10,57.4,16900,17.9,150,2760,0.5 to 1,0.1,significantly inhibited,42.7,30.9,157,3.65,~2.67,~22.6,"COc1cc(N2CCC(N3CCN(C(=O)CNc4cccc5c4C(=O)N(C4CCC(=O)NC4=O)C5=O)CC3)CC2)ccc1Nc1ncc(Cl)c(Nc2ccccc2P(C)(C)=O)n1 (centres unmarked) [SIAIS164018, 4-((2-(4-(1-(4-((5-chloro-4-((2-(dimethylphosphoryl)phenyl)amino)pyrimidin-2-yl)amino)-3-methoxyphenyl)piperidin-4-yl)piperazin-1-yl)-2-oxoethyl)amino)-2-(2,6-dioxopiperidin-3-yl)isoindoline-1,3-dione]",,effectively degrade ALK proteins at nano mole concentration,inhibited,2 ± 1.4,"colony formation [7]: dramatically inhibited; concentration at which ALK proteins were degraded ([11]; SR cells, western blot): less than 1 nM; reduction of ALK protein level and its block by MG132 and MLN4924 [14]: able to be blocked; half-life [16, 25]: ~4.65 h; bioavailability ([16]; PO, 10 mg/kg): 18.4%; Tmax ([16]; PO, 10 mg/kg, read-out: Tmax): 2 h; half-life [16, 26]: 7.09 h; IC50 [17, 21]: 79 nM; IC50 ([17]; read-out: IC50): 79 nM; ALK protein level / degradation [4]: a similar effects was observed; IC50 [18]: 900 nM"
did not show much difference,,,,,,,,,,,,,,,,"Cc1cc(Nc2ncc(Cl)c(Nc3ccccc3S(=O)(=O)C(C)C)n2)c(OC(C)C)cc1C1CCNCC1 [Ceritinib, reference compound]",16,,,,"IC50 ([1]; H3122 cells, CTB (Cell Titer Blue)): 14 nM; IC50 ([1]; H3122 cells, CTG (Cell Titer Glo)): 44 nM; increase of progression free survival comparing to second line chemotherapy [19]: about 4 months; ALK protein level / degradation [4]: did not affect ALK protein level"
,10 to 50,376,3520,74,265,15200,1 to 10,0.1,significantly inhibited,243,115,93,1.54,~0.42,~414,"COc1cc(N2CCC(N3CCN(C(=O)CCOCCOCCNc4cccc5c4C(=O)N(C4CCC(=O)NC4=O)C5=O)CC3)CC2)ccc1Nc1ncc(Cl)c(Nc2ccccc2P(C)(C)=O)n1 (centres unmarked) [SIAIS164008, 4-((2-(2-(3-(4-(1-(4-((5-chloro-4-((2-(dimethylphosphoryl)phenyl)amino)pyrimidin-2-yl)amino)-3-methoxyphenyl)piperidin-4-yl)piperazin-1-yl)-3-oxopropoxy)ethoxy)ethyl)amino)-2-(2,6-dioxopiperidin-3-yl)isoindoline-1,3-dione]",,effectively degrade ALK proteins at nano mole concentration,inhibited,3.6 ± 2.1,"IC50 ([6]; read-out: IC50): ~3520 nM; half-life [16, 25]: ~0.85 h; bioavailability ([16]; PO, 10 mg/kg): 14.9%; Tmax ([16]; PO, 10 mg/kg, read-out: Tmax): 2.75 h; half-life [16, 26]: 3.98 h; IC50 [17, 21]: 392 nM; IC50 [18]: 1830 nM"
